This note sets out measurements from patent publication US9517202B2, “Phospholipid depot” (LATITUDE PHARMACEUTICALS INC., priority 2009, dated 2016).

The data set in a line: Injectability test: force to extrude from 1 cc syringe through 25 G ½ inch needle at 2 cc/min. Format: physicochemical. The note with it: 25 G ½ inch long needle. The source says:
A major disadvantage of the polymer depots is that they require large diameter needles for injection or implantation due to the physical size of the microcapsules/microspheres and/or the high viscosity of the polymer gel. For example, 14- or 16-gauge (G) needles are required for implantation of Zoladex™ and 18 G or 20 G needles for injection of Eligard™. However, in common medical practice, needles of size greater than 21 G are generally not used for injection because they cause significant pain and psychological trauma for patients. […] The injectability or ease with which the end user can self-inject through such a system will be key to such a drug's user compliance and therapeutic efficacy. For discussion purposes herein, the injectability of a syringe-administered depot is quantitatively defined as meeting the “Acceptable Injectability Criterion” if it requires an applied force of no more than 10 pounds to be extruded from a 1 cc syringe through a 25 G ½ inch long needle at rate of 2 cc/min.
The phrase “Acceptable Injectability Criterion” as used herein includes quantitatively defining a formulation that requires an applied force of no more than 10 pounds to extrude the formulation from a 1 cc syringe through a 25 G ½ inch long needle at rate of 2 cc/min. […]
F-43 was a translucent one-phase gel. The injectability of F-43 was determined against the Acceptable Injectability Criterion. […]

Molecules are shown by their SMILES.

Consider `OCC(O)CO` [glycerin], for which the maximum injection force result was “approximately 8 pounds”.
